20 molecules from patent publication US6512000B1, “Aminocarbonyl-substituted benzimidazoles having tryptase-inhibitory activity” (Boehringer Ingelheim Pharma KG, priority 1999, dated 2003) can be followed below.

This test concerns the target T1, rh beta tryptase (Homo sapiens, UniProt P20231).
T1 construct: purchased Promega
The experiment in a line: Tryptase inhibition test (cleavage of N-p-tosyl-Gly-Pro-Lys-para-nitroaniline, p-nitroaniline measured at 405 nm). To be noted: pH 7.4, 37° C.; for % Inhibition (10 μM) / inhibition at 10 µM: inhibition of rh beta tryptase at 10 μM test substance, substrate N-p-tosyl-Gly-Pro-Lys-para-nitroaniline 0.6 mM, 5 minutes; for IC50: concentration at which 50% of the tryptase enzyme activity is inhibited, substrate 0.6 mM. Type of test: biochemical. Here is the method:
The compounds according to the invention are characterised by their tryptase-inhibiting activity. This ability to inhibit tryptase was investigated using the test described below.
The measurement is carried out in Tris HCl buffer (100 mM), which additionally contains calcium (5 mM) and heparin ([…]), at pH 7.4. The standard used is rh beta tryptase which may be obtained commercially from Promega, for example. The substrate used is N-p-tosyl-Gly-Pro-Lys-para-nitroaniline in a concentration of 0.6 mM. The substrate is digested with tryptase to form p-nitroaniline which can be measured at 405 nm. Usually, an incubation period of 5 minutes and an incubation temperature of 37° C. are chosen. The enzyme activity used is 0.91 U/ml. The measurements are carried out in an Autoanalyser (Cobas Bio) made by Hofmann LaRoche. The potential inhibitory substances are used in concentrations of 10 μM in the screening, the inhibition of the tryptase being given in percent. The IC50 is determined at over 70% inhibition (concentration at which 50% of the enzyme activity is inhibited). After 5 minutes' pre-incubation of the potential inhibitory substances, the substrate is added to start the reaction, the formation of p-nitroaniline being taken as a measurement of the enzyme activity after 5 minutes, after testing the linearity.
The data obtained after the above test has been carried out (% inhibition) are assembled in Table 25 for the compounds according to the invention. The IC50 values obtained for the compounds according to the invention can be found in Table 26.
Table 26 contains the IC50 binding values obtained for the compounds according to the invention. These were measured as described above.

As a reminder, the IC50 is the concentration at which inhibition is half-maximal. A higher IC50 goes with weaker potency in that assay. The inhibition is the drop in the measured response relative to a control, in per cent.

Structures can show the parent of a compound that is named as a salt.

T1 sequence (P20231 31-275): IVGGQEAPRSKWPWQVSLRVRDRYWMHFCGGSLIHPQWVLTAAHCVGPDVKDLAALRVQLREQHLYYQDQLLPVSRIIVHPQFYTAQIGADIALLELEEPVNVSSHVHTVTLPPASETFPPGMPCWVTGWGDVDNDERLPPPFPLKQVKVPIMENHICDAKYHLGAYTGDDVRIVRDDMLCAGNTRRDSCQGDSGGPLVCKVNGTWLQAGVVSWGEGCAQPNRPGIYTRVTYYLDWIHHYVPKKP

Take “2-[2-(4-amidinophenyl)ethyl]-1-(tetrahydrofuran-2-yl-methyl)-benzimidazol-5-yl-carboxylic acid-N-(2-aminoethyl)-N-(2-pyridyl)-amide [Example 322]”: the “% Inhibition (10 μM)” value is recorded as 51%.
`CCOCCCn1c(CCc2ccc(C(=N)N)cc2)nc2cc(C(=O)N(CCCc3ccccc3)Cc3ccc(CN)cc3)ccc21` [Example 166, 2-[2-(4-amidinophenyl)ethyl]-1-(3-ethoxypropyl)-benzimidazol-5-yl-carboxylic acid-N-[4-(amino-methyl)-benzyl]-N-(3-phenylpropyl)-amide] gave an IC50 of 274 nM and an inhibition at 10 µM of 57%.
With `CCCCN(CCCC)CCCn1c(CCc2ccc(C(=N)N)cc2)nc2cc(C(=O)N(CCN)Cc3ccccc3)ccc21` [Example 295, 2-[2-(4-amidinophenyl)ethyl]-1-(3-di-n-butylaminopropyl)-benzimidazol-5-yl-carboxylic acid-N-(2-aminoethyl)-N-benzyl-amide], the inhibition at 10 µM is 55%.
Regarding `CCOC(=O)CN(Cc1ccc(C(=N)N)cc1)C(=O)c1ccc2c(c1)nc(CCc1ccc(C(=N)N)cc1)n2C` [Example 5, 2-[2-(4-Amidinophenyl)-ethyl]-1-methyl-benzimidazol-5-yl-carboxylic Acid-N-(4-amidino-benzyl)-N-ethoxycarbonylmethyl-amide-dihydrochloride], the IC50 was found to be 245 nM.
Molecule `N=C(N)c1ccc(CCc2nc3cc(C(=O)N(Cc4ccc(CN)cc4)CC4CCCCC4)ccc3n2CCCNC(=O)Cc2ccccc2)cc1` [Example 152, 2-[2-(4-amidinophenyl)ethyl]-1-[3-(benzylcarbonylamino)-propyl]-benzimidazol-5-yl-carboxylic acid-N-[4-(amino-methyl)-benzyl]-N-cyclohexylmethyl-amide] gave an inhibition at 10 µM of 65%.
`N=C(N)c1ccc(CCc2nc3cc(C(=O)N(CCN)Cc4ccccc4)ccc3n2CC2CCCO2)cc1` (centres unmarked) [Example 306, 2-[2-(4-amidinophenyl)ethyl]-1-(tetrahydrofuran-2-yl-methyl)-benzimidazol-5-yl-carboxylic acid-N-(2-aminoethyl)-N-benzyl-amide] registered an inhibition at 10 µM of 62%.
In turn, `CCCCN(CCCC)CCCn1c(CCc2ccc(C(=N)N)cc2)nc2cc(C(=O)N(CCN)CCCC)ccc21` [Example 279, 2-[2-(4-amidinophenyl)ethyl]-1-(3-di-n-butylaminopropyl)-benzimidazol-5-yl-carboxylic acid-N-(2-aminoethyl)-N-n-butyl-amide] gave an inhibition at 10 µM of 60%.
In turn, `N=C(N)c1ccc(CCc2nc3cc(C(=O)N(Cc4ccccc4)Cc4ccc(CN)cc4)ccc3n2CCc2ccccc2)cc1` [Example 107, 2-[2-(4-amidinophenyl)ethyl]-1-(2-phenylethyl)-benzimidazol-5-yl-carboxylic acid-N-[4-(amino-methyl)-benzyl]-N-benzyl-amide] showed an IC50 of 344 nM and an inhibition at 10 µM of 65%.
Molecule `CCCCN(CCN)C(=O)c1ccc2c(c1)nc(CCc1ccc(C(=N)N)cc1)n2CCc1ccc(Cl)cc1` [Example 284, 2-[2-(4-amidinophenyl)ethyl]-1-[2-(4-chlorophenyl)ethyl]-benzimidazol-5-yl-carboxylic acid-N-(2-aminoethyl)-N-n-butyl-amide] had an inhibition at 10 µM of 55%.
In the case of `N=C(N)c1ccc(CCc2nc3cc(C(=O)N(Cc4ccccc4)Cc4ccc(CN)cc4)ccc3n2CC2CC2)cc1` [Example 106, 2-[2-(4-amidinophenyl)ethyl]-1-cyclopropylmethyl-benzimidazol-5-yl-carboxylic acid-N-[4-(amino-methyl)-benzyl]-N-benzyl-amide], the inhibition at 10 µM was 58%.
For `N=C(N)c1ccc(CCc2nc3cc(C(=O)N(CCN)Cc4cccc(C(F)(F)F)c4)ccc3n2CC2CCCO2)cc1` (centres unmarked) [Example 402, 2-[2-(4-amidinophenyl)ethyl]-1-(tetrahydrofuran-2-yl-methyl)-benzimidazol-5-yl-carboxylic acid-N-(2-aminoethyl)-N-(3-trifluoromethylbenzyl)-amide], the inhibition at 10 µM was 51%.
The same measure, in the same setting: in the case of `COc1cccc(CN(Cc2ccc(CN)cc2)C(=O)c2ccc3c(c2)nc(CCc2ccc(C(=N)N)cc2)n3CCc2ccc(Cl)cc2)c1` [Example 76, 2-[2-(4-amidinophenyl)ethyl]-1-[2-(4-chlorophenyl)ethyl]-benzimidazol-5-yl-carboxylic acid-N-[4-(amino-methyl)-benzyl]-N-(3-methoxybenzyl)-amide] it was 58%.
With `CC(C)Oc1cccc(N2CCN(C(=O)c3ccc4c(c3)nc(CCc3ccc(C(=N)N)cc3)n4C)CC2)c1` [Example 49, 2-[2-(4-Amidinophenyl)-ethyl]-1-methyl-benzimidazol-5-yl-carboxylic Acid-[N ′-(3-isopropyloxyphenyl)-piperazide]], the IC50 was determined as 152 nM.
In turn, `N=C(N)c1ccc(CCc2nc3cc(C(=O)N(Cc4ccc(CN)cc4)Cc4ccccc4F)ccc3n2CC2CCCO2)cc1` (centres unmarked) [Example 226, 2-[2-(4-amidinophenyl)ethyl]-1-(tetrahydrofuran-2-yl-methyl)-benzimidazol-5-yl-carboxylic acid-N-[4-(amino-methyl)-benzyl]-N-(2-fluorobenzyl)-amide] showed an inhibition at 10 µM of 64%.
As for `Cc1ccc(N(CCC(=N)N)C(=O)c2ccc3c(c2)nc(CCc2ccc(C(=N)N)cc2)n3C)cc1` [Example 26, 2-[2-(4-Amidinophenyl)-ethyl]-1-methyl-benzimidazol-5-yl-carboxylic Acid-N-(2-amidinoethyl)-N-(4-methyl-phenyl)-amide-dihydrochloride], the IC50 came out at 168 nM.
Molecule `N=C(N)c1ccc(CCc2nc3cc(C(=O)N(Cc4ccc(CN)cc4)Cc4cccc(C(F)(F)F)c4)ccc3n2CC2CC2)cc1` [Example 202, 2-[2-(4-amidinophenyl)ethyl]-1-cyclopropylmethyl-benzimidazol-5-yl-carboxylic acid-N-[4-(amino-methyl)-benzyl]-N-(3-trifluoromethylbenzyl)-amide] gave an IC50 of 822 nM and an inhibition at 10 µM of 58%.
On to `CCOc1cccc(N2CCN(C(=O)c3ccc4c(c3)nc(CCc3ccc(C(=N)N)cc3)n4C)CC2)c1` [Example 48, 2-[2-(4-Amidinophenyl)-ethyl]-1-methyl-benzimidazol-5-yl-carboxylic Acid-[N′-(3-ethoxyphenyl)-piperazide]], for which the half-maximal inhibitory concentration (IC50) was found to be 147 nM.
On to `N=C(N)c1ccc(CCc2nc3cc(C(=O)N(Cc4ccc(Cl)cc4)Cc4ccc(CN)cc4)ccc3n2CC2CC2)cc1` [Example 186, 2-[2-(4-amidinophenyl)ethyl]-1-cyclopropylmethyl-benzimidazol-5-yl-carboxylic acid-N-[4-(amino-methyl)-benzyl]-N-(4-chlorbenzyl)-amide], for which the “% Inhibition (10 μM)” value is recorded as 60%.
`N=C(N)c1ccc(CCc2nc3cc(C(=O)N(Cc4ccc(CN)cc4)Cc4ccc5ccccc5c4)ccc3n2CCc2ccccc2)cc1` [Example 235, 2-[2-(4-amidinophenyl)ethyl]-1-(2-phenylethyl)-benzimidazol-5-yl-carboxylic acid-N-[4-(amino-methyl)-benzyl]-N-(2-naphthylmethyl)-amide] showed an inhibition at 10 µM of 52%.
As to “2-[2-(4-amidinophenyl)ethyl]-1-(tetrahydrofuran-2-yl-methyl)-benzimidazol-5-yl-carboxylic acid-N-[4-(amino-methyl)-benzyl]-N-(2-pyridyl)-amide [Example 130]”, the “% Inhibition (10 μM)” value stood at 77%.
